Assay [1] concerns the target T1, human M1 receptor (hCHRM1) (Homo sapiens, UniProt P11229).
T1 construct: expressed in transfected cells
T1 sequence (P11229 1-460): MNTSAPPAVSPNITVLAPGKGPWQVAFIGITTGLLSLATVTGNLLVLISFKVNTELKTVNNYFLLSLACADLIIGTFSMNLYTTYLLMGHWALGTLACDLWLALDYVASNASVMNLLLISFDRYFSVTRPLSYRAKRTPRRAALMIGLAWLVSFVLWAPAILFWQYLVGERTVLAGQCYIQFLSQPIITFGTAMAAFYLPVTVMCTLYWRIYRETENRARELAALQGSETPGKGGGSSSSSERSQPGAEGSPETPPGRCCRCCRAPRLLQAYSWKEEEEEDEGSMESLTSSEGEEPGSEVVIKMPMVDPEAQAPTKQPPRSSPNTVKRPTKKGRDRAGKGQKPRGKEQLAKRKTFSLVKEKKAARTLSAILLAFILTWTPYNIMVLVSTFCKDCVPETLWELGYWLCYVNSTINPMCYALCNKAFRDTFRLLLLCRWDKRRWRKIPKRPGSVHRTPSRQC
Kind of assay: Measurement of M1 receptor positive allosteric modulator (M1PAM) activity, Ca2+ fluorescence by FLIPRtetra (Experimental Example 1). Format: cell-based. The conditions noted are these: for activity (%) at 10 μM: 10 μM test compound, 100% = acetylcholine 1 μM, 0% = DMSO; for EC50: inflection point of concentration-dependent curve, in presence of acetylcholine at EC20 (0.8-1.0 nM), CHO-K1 cells expressing hCHRM1, read-out: IP value. Put shortly: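 CHO-K1 cells stably expressing hCHRM1, loaded with Fluo-4 AM (probenecid), received compound with acetylcholine at EC20 (final 0.8-1.0 nM); Ca2+ fluorescence read 1 min by FLIPRtetra. Activity scaled 0% (DMSO) to 100% (1 μM acetylcholine); IP from inflection point of concentration curve.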

Assay [2] has as its system Myo-Inositol 1 Phosphate (IP1). Kind of assay: Measurement of myo-inositol 1 phosphate (IP1) in rat hippocampi after oral administration (Experimental Example 3). Format: in vivo, male Long-Evans rats. The conditions noted are these: IP1 production (IP1/protein) in rat hippocampi; 10 mg/kg oral; relative to Vehicle administration group as 100%. How it is done: Measurement of Myo-Inositol 1 Phosphate (IP1)
Animals used were male Long-Evans rats. They were used after acclimation for at least 1 week. Test compounds were suspended in 0.5% (w/v) aqueous methylcellulose solution, and the suspension was orally administered to the rats. After a given time, lithium chloride dissolved in saline was subcutaneously administered into the rats. After a given time, their bilateral hippocampi were isolated from the rats, and the wet weight thereof was measured. The isolated hippocampi were homogenized with HEPES (registered trademark) buffer, followed by centrifugation. The IP1 and protein concentrations in the supernatant were measured by IP-One HTRF assay kit (Cisbio Bioassays) and BCA protein assay kit (Thermo Scientific), respectively. The level of the IP1 production was expressed as the ratio of the concentration of IP1 to that of protein. The increase rate of the IP1 production was shown as a relative value when Vehicle administration group as 100%.

Assay [3] concerns Scopolamine-induced memory deficits models. Kind of assay: Novel object recognition test (Experimental Example 4). Format: in vivo, male Long-Evans rats. The conditions noted are these: scopolamine 0.1 mg/kg s.c., retention trial 4 hr after acquisition, mean±standard error. How it is done: Novel Object Recognition Test Novel object recognition test is comprised of two trials called the acquisition and the retention trials. Scopolamine-induced memory deficits models were used for the test, and animals used were male Long-Evans rats. On the day before the test, for acclimation, the rats were allowed to freely move about the test box (40×40×50 cm) for 10 minutes. On the test day, the rats were acclimated to the test room for about 1 hr prior to the test. The test compounds were orally administered to the rats in a single dose a given time before the acquisition trial. For induction of learning and memory deficits, scopolamine (0.1 mg/kg) was subcutaneously administered into the rats 30 min before the acquisition trial. For the acquisition trial, two identical objects (A1, A2) were placed in the test box. The rats were put in the test box for 3 min, and the duration exploring each object was measured. The retention trial was performed 4 hr after the acquisition trial. For the retention trial, one familiar object (A3) used for the acquisition trial and one novel object (B) having a different shape from A3 were placed in the test box. After setting the objects, the rats were introduced into the test box and retention trial was performed for 3 min. The duration for exploring each object in the acquisition trial and the retention trial was measured, and the exploration rate of novel object was calculated. The exploration rate of novel object was expressed as (the duration exploring the novel object)/[(the duration exploring the novel object)+(the duration exploring the familiar object)]×100(%) at mean±standard error.

The target of assay [4] is T1, human M1 receptor (hCHRM1). In words: Measurement of M1 receptor positive allosteric modulator (M1PAM) activity, Ca2+ fluorescence by FDSS/μ cell (Experimental Example 2). Format: cell-based. The conditions noted are these: for activity (%) at 10 μM: 10 μM test compound, 100% = acetylcholine 1 μM, 0% = DMSO; for EC50: inflection point of concentration-dependent curve, in presence of acetylcholine at EC20 (0.8-1.0 nM), CHO-K1 cells expressing hCHRM1, read-out: IP value. The procedure:
Measurement of M1 Receptor Positive Allosteric Modulator (M1PAM) Activity
The activity of a test compound in the presence of acetylcholine at EC20 concentration (final concentration 0.8-1.0 nM), which affords an action corresponding to about 20% of the maximum activity, was measured as PAM activity. The method is as follows. CHO-K1 cells stably expressing a human M1 receptor (hCHRM1) were plated on a 384-well black clear bottom plate (BD Falcon) at 5,000 cells/well, and cultured in an incubator at 37° C., 5% CO2 for 1 day. The medium in the cell plate was removed, and a dye solution (prepared by adding Recording medium (DOJINDO LABORATORIES) to a final concentration of 1×concentration, Fluo-4 AM (DOJINDO LABORATORIES) to a final concentration of 2.5 μg/mL, Pluronic F127 (DOJINDO LABORATORIES) to a final concentration of 0.08%, and probenecid (DOJINDO LABORATORIES) to a final concentration of 1.25 mM to assay buffer (HBSS (Invitrogen), 20 mM HEPES (Invitrogen), 0.1% BSA (Wako Pure Chemical Industries, Ltd.))) was added at 30 μL/well. The cells were left standing in the incubator at 37° C., 5% CO2 for 30 min, and further left standing at room temperature for 30 min. A test compound prepared by diluting with assay buffer containing 3.2-4.0 nM acetylcholine was added at 10 μL/well, and the fluorescence was measured by FDSS/μ cell (Hamamatsu Photonics K.K.) for 1 min every 1 second. With the definition that the amount of change in the fluorescence on addition of acetylcholine (final concentration 1 μM) is 100% and that on addition of DMSO instead of a test compound is 0%, the activity (%) of the test compound was calculated, and the inflection point in the concentration-dependent curve of the test compound was calculated as IP values.

Results on 11 molecules are retold here after patent US10323027B2, “2,3-dihydro-4H-1,3-benzoxazin-4-one derivatives as modulators of cholinergic muscarinic M1 receptor” (Takeda Pharmaceutical Company Limited, priority 2015, dated 2019).

Where a name gives a salt, the structure may show the parent alone.

For `Cc1c(Cc2ccc(Cl)nc2)cc2c(c1Cl)OCN([C@H]1CCC[C@@H]1O)C2=O` [Example 24, 8-chloro-6-((6-chloropyridin-3-yl)methyl)-3-((1S,2S)-2-hydroxycyclopentyl)-7-methyl-2,3-dihydro-4H-1,3-benzoxazin-4-one], in assay [1], the “activity (%) at 10 μM” value is recorded as 94% and the EC50 turned out to be 3.1 nM. Besides, the “increase rate (%) at 10 mg/kg” value in assay [2] is given as 26%. For the same molecule, the “exploration rate of novel object (%)” value in assay [3] (3 mg/kg oral) turned out to be 63.5±2.4%.
Turning to `CCc1cc2c(cc1Cc1ccc(OC)nc1)C(=O)N([C@H]1COCC[C@@H]1O)CO2` [Example 118, 1,5-anhydro-2,4-dideoxy-2-(7-ethyl-6-((6-methoxypyridin-3-yl)methyl)-4-oxo-2H-1,3-benzoxazin-3(4H)-yl)-L-threo-pentitol], in assay [4], the “activity (%) at 10 μM” value came to 116% and the EC50 was 47 nM.
As to `Cc1ccc(Cc2cc3c(cc2C)OCN([C@H]2CCCC[C@@H]2O)C3=O)cn1` (single isomer, unassigned) [Example 28, 3-(trans-2-hydroxycyclohexyl)-7-methyl-6-((6-methylpyridin-3-yl)methyl)-2,3-dihydro-4H-1,3-benzoxazin-4-one monohydrochloride (optical isomer)], in assay [1], the “activity (%) at 10 μM” value worked out at 108% and the EC50 came out at 20 nM. Besides, the “increase rate (%) at 10 mg/kg” value in assay [2] is on record as 36%.
Consider `C#Cc1ccc(Cc2cc3c(c(C)c2C)OCN([C@H]2COCC[C@@H]2O)C3=O)cn1` [Example 112, 1,5-anhydro-2,4-dideoxy-2-(6-((6-ethynylpyridine-3-yl)methyl)-7,8-dimethyl-4-oxo-2H-1,3-benzoxazin-3(4H)-yl)-L-threo-pentitol], for which, in assay [4], the “activity (%) at 10 μM” value turned out to be 99% and the EC50 is 9.1 nM.
On to `Cc1c(Cc2ccc(-c3ccn(C)n3)nc2)cc2c(c1Cl)OCN([C@H]1CCC[C@@H]1O)C2=O` [Example 99, 8-chloro-3-((1S,2S)-2-hydroxycyclopentyl)-7-methyl-6-((6-(1-methyl-1H-pyrazol-3-yl)pyridin-3-yl)methyl)-2,3-dihydro-4H-1,3-benzoxazin-4-one], for which, in assay [4], the “activity (%) at 10 μM” value is 97% and the EC50 amounted to 2.9 nM.
As to `Cc1c(Cc2ccc(-n3cccn3)nc2)cc2c(c1F)OCN([C@H]1CCC[C@@H]1O)C2=O` [Example 13, 8-fluoro-3-((1S,2S)-2-hydroxycyclopentyl)-7-methyl-6-((6-(1H-pyrazol-1-yl)pyridin-3-yl)methyl)-2,3-dihydro-4H-1,3-benzoxazin-4-one], in assay [1], the “activity (%) at 10 μM” value amounted to 88% and the EC50 turned out to be 6 nM. In addition, the “increase rate (%) at 10 mg/kg” value in assay [2] came to 102%. Besides, in assay [3] (1 mg/kg oral), the “exploration rate of novel object (%)” value worked out at 60.2±3.0%.
Consider `Cc1c(Cc2ccc(C#C[Si](C)(C)C)nc2)cc2c(c1C)OCN([C@H]1COCC[C@@H]1O)C2=O` [Example 111, 1,5-anhydro-2,4-dideoxy-2-(7,8-dimethyl-4-oxo-6-((6-((trimethylsilyl)ethynyl)pyridin-3-yl)methyl)-2H-1,3-benzoxazin-3(4H)-yl)-L-threo-pentitol], for which, in assay [4], the “activity (%) at 10 μM” value amounted to 96% and the EC50 stood at 68 nM.
On to `Cc1c(Cc2ccc(-n3cccn3)cc2)cc2c(c1F)OCN(CC(C)(C)O)C2=O` [Example 101, 8-fluoro-3-(2-hydroxy-2-methylpropyl)-7-methyl-6-(4-(1H-pyrazol-1-yl)benzyl)-2,3-dihydro-4H-1,3-benzoxazin-4-one], for which, in assay [4], the “activity (%) at 10 μM” value is reported as 91% and the EC50 was found to be 61 nM.
The matching figures for `Cc1c(Cc2ccc(-c3ccn(C)n3)cc2)cc2c(c1C)OCN([C@H]1COCC[C@@H]1O)C2=O` [Example 100, 1,5-anhydro-2,4-dideoxy-2-(7,8-dimethyl-6-(4-(1-methyl-1H-pyrazol-3-yl)benzyl)-4-oxo-2H-1,3-benzoxazin-3(4H)-yl)-L-threo-pentitol]: 99% and 4.4 nM.
Regarding `Cc1cc2c(cc1Cc1ccc(-c3ccn(C)n3)cc1)C(=O)N([C@H]1COCC[C@@H]1O)CO2` [Example 104, 3-((3S,4S)-4-hydroxytetrahydro-2H-pyran-3-yl)-7-methyl-6-(4-(1-methyl-1H-pyrazol-3-yl)benzyl)-2,3-dihydro-4H-1,3-benzoxazin-4-one], in assay [4], the “activity (%) at 10 μM” value was determined as 99% and the EC50 came out at 4.5 nM. Further, in assay [2], the “increase rate (%) at 10 mg/kg” value is reported as 86%. For the same molecule, the “exploration rate of novel object (%)” value in assay [3] (3 mg/kg oral) was found to be 61.6±2.2%.
Take `Cc1cc2c(cc1Cc1ccc(Cl)nc1)C(=O)N([C@H]1CCCC[C@@H]1O)CO2` [Example 140, 6-((6-chloropyridin-3-yl)methyl)-3-((1S,2S)-2-hydroxycyclohexyl)-7-methyl-2,3-dihydro-4H-1,3-benzoxazin-4-one]: in assay [4], the “activity (%) at 10 μM” value is 101% and the EC50 stood at 10 nM.
